The subject of the assay is Mycobacterium tuberculosis. As to the kind of experiment: Antimycobacterial activity against multi-drug resistant Mycobacterium tuberculosis after 5 days in presence of 7H9 medium by CLSI-based broth microdilution method. The format is functional. The settings on record: 120 h, time 5 day.

Each structure is given as a SMILES string. Some results are limits rather than exact numbers.

As to `CCc1c(Cl)c(O)c(Cl)c(O)c1C(=O)O[C@@H]1[C@@H](O)[C@@H](OC)[C@@H](OC/C2=C\C=C\C[C@H](O)/C(C)=C/[C@H](CC)[C@@H](O[C@@H]3OC(C)(C)[C@@H](OC(=O)C(C)C)[C@H](O)[C@@H]3O)/C(C)=C/C(C)=C/C[C@@H]([C@@H](C)O)OC2=O)O[C@H]1C`, the MIC is less than 8 ng/mL.
